A word on the Ki: it is a dissociation constant, usually derived from enzyme kinetics or from competition with a known ligand.

The values that follow come from patent publication US20250154198A1, “PEPTIDE INHIBITORS OF INTERLEUKIN-23 RECEPTOR” (Zealand Pharma A/S, priority 2021, published 2025).

Molecules are shown by their SMILES. *1 amine or outer side, *2 acyl side, *3 side chain or, on linkers, in order; H or OH if unused. Where a SMILES comes first, the peptide text is derived from it. Bridges are numbered along the chain shown (N, C = ends). [ ]: non-standard residue; d: D form. The star is where a group is joined. Ala(quinolin-3-yl) = N[C@@H](Cc1cnc2ccccc2c1)C(=O)O; Trp(4-F) = N[C@@H](Cc1c[nH]c2cccc(F)c12)C(=O)O; Trp(7-F) = N[C@@H](Cc1c[nH]c2c(F)cccc12)C(=O)O; 2Nal = N[C@@H](Cc1ccc2ccccc2c1)C(=O)O; AEF = NCCOc1ccc(C[C@H](N)C(=O)O)cc1; X1 = O=C(Cc1ccc(CN[*:1])cc1)[*:2]; 3Pal = N[C@@H](Cc1cccnc1)C(=O)O; αMeL = CC(C)C[C@](C)(N)C(=O)O; CH2COCH2 = O=C(C[*:1])C[*:2]; 3Amb = NCc1cccc(C(=O)O)c1; Pyrrolidide = C1CCN(*)C1; Dab = NCC[C@H](N)C(=O)O; βAla = NCCC(=O)O

In the experiment the target is T1, human IL-23R (Homo sapiens, UniProt Q5VWK5).
T1 construct: UniProtKB—Q5VWK5, amino acids 22-629; secretion signal of the plasmid (Promega N1371); expressed in transfected cells
T1 sequence (Q5VWK5 22-629): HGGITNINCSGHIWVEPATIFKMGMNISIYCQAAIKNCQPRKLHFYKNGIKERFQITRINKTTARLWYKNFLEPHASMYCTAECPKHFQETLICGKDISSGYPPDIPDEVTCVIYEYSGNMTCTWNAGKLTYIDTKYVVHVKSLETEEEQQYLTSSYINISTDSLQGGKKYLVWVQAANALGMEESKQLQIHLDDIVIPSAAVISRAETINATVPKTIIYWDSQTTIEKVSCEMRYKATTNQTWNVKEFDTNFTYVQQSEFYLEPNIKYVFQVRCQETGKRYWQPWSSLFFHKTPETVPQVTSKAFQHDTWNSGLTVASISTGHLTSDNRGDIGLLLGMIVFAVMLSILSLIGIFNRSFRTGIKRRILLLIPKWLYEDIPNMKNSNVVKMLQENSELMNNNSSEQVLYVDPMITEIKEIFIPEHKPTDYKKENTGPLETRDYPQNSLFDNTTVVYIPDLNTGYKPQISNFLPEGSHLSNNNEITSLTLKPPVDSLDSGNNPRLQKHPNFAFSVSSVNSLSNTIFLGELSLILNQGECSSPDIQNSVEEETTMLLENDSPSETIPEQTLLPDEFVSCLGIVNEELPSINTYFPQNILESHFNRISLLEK
As to the kind of experiment: Binding assay (NanoBRET displacement of fluorophore-labelled reference compound) for estimating binding affinity to human IL-23R. The conditions noted are these: Table 3-1; read-out: Ki hIL-23R. The source says:
Binding Assay for Estimating Binding Affinity of Compounds to Human IL-23R
The compound binding affinity for IL-23R was estimated by the ability of compounds to displace a fluorophore-labelled reference compound from the human IL-23R. The assay principle relies on Bioluminescence Resonance Energy Transfer (BRET) between a fluorophore-labelled reference compound binding to the IL-23R part of a fusion protein consisting of the IL-23R fused to a Nanoluc luciferase enzyme (Nanoluc). The Nanoluc is placed in the N-terminus in close proximity to the binding domain of the ligand. Upon close proximity between the fluorophore of the fluorophore-labelled compound and the Nanoluc of the fusion protein, bioluminescence energy generated from conversion of a Nanoluc substrate, is transferred to the fluorophore resulting in an increase in BRET. In presence of an unlabelled compound, the unlabelled compound displaces the fluorophore-labelled peptide from its binding site resulting in a decrease in BRET. The concentration for which half of the fluorophore-labelled peptide is displaced by the unlabelled compound depends on the affinity of the compound for the IL-23R, and is termed the IC50 concentration. An estimated affinity (K) of the unlabelled compound for the IL-23R may be calculated using the Cheng-Prussov equation, which takes into account the concentration of the fluorophore-labelled compound used, and the affinity of the fluorophore-labelled compound for IL-23R.
The plasmid also contained a gene to confer resistance for the antibiotic hygromycin. A cell line stably expressing the Nluc-IL23R fusion protein was generated by transfection of HEK293 cells with the expression plasmid and selected with hygromycin for 3 weeks in Growth medium consisting of DMEM w/Glutamax-I containing, 10% V/V FBS, 1% V/V P/S, 1 mM Sodium Pyruvate, and 1×NEAA, and 0.3 mg/mL hygromycin. The remaining cells were propagated and considered a stable expressing Nluc-IL23R fusion protein pool clone.
Cells expressing the Nluc-IL23R fusion protein were expanded in Growth medium and membranes prepared by homogenization of a cell pellet from 18 T175 flasks (4° C. in subsequent steps). The cell pellet was lysed Tris 10 mM, 7.5, 1 mM EDTA and protease inhibitors (Complete, Roche) and homogenized using a 15 mL glass-dounce by 50 strokes. The homogenate was spun at spin @1500 rpm for 10 min, the supernatant transferred to SV-34 tubes and spun at 40000 g for 20 min at 4° C. to pellet the crude membranes. The supernatant was then removed, the pellet resuspended in 5 mL buffer containing 50 mM HEPES pH 7.4, 5 mM EGTA, and 5 mM MgCl2, and homogenized. Aliquots of the resuspended and homogenized membranes containing the Nluc-IL23R fusion protein were stored at −80° C. until use.
The plate was sealed with light impermeable plate seals, and incubated on a orbital shaker 400 rpm for 2 hours at room temperature. To determine the BRET ratio, the plate seal was removed and 25 μL of the Nanoluc substrate (Promega N1572) diluted 1:500 was added to each well and incubated for 1-2 minutes on an orbital shaker at 400 rpm. […] The BRET ratio was calculated as the fluorescence from the TAMRA/nanoluc bioluminescence. The IC50 for each compound was determined by computer-aided curve fitting using a 4-parameter logistic (4PL) non-linear model.
As to `CC(C)C[C@]1(C)NC(=O)[C@H](Cc2ccc3ccccc3c2)NC(=O)[C@H](Cc2ccc(OCCN)cc2)NC(=O)[C@@H]2CSCC(=O)CSC[C@H](NC(=O)[C@H](CO)NC(=O)Cc3ccc(cc3)CNC(=O)CC[C@@H](C(=O)NCCC(N)=O)NC1=O)C(=O)N[C@@H](Cc1c[nH]c3ccccc13)C(=O)N[C@@H](CCC(N)=O)C(=O)N2` [Compound 119, [4-Aminomethyl-phenylacetyl](1c)*SC(2a)WQC(2a)[Y(2-aminoethoxy)][2-Nal][2-Me-Leu]E(1c)[3-Aminopropanoyl]-[NH2]] ([X1]SCWQC[AEF][2Nal][αMeL]E[βAla]-NH2; linker 3-6 via CH2COCH2; lactam N-10), the Ki was 303 pM.
In the case of `CC(C)C[C@]1(C)NC(=O)[C@H](Cc2ccc3ccccc3c2)NC(=O)[C@H](Cc2ccc(OCCN)cc2)NC(=O)[C@@H]2CCNC(=O)CC[C@H](NC(=O)[C@H](C(C)C)NC(=O)Cc3ccc(cc3)CNC(=O)CC[C@@H](C(=O)N[C@@H](CCN)C(N)=O)NC1=O)C(=O)N[C@@H](Cc1c[nH]c3ccccc13)C(=O)N[C@@H](CCC(N)=O)C(=O)N2` [Compound 126, [4-Aminomethyl-phenylacetyl](1c)*VE(2c)WQ[Dab](2c)[Y(2-aminoethoxy][2-Nal][2-Me-Leu]E(1c)[Dab]-[NH2]] ([X1]VEWQ[Dab][AEF][2Nal][αMeL]E[Dab]-NH2; lactam 3-6, N-10) it was 718 pM.
As to `CC(C)[C@]1(C)NC(=O)[C@H](Cc2ccc3ccccc3c2)NC(=O)[C@H](Cc2ccc(OCCN)cc2)NC(=O)[C@@H]2CCNC(=O)CC[C@H](NC(=O)[C@H](CO)NC(=O)Cc3ccc(cc3)CNC(=O)CC[C@@H](C(=O)N[C@@H](CCN)C(N)=O)NC1=O)C(=O)N[C@@H](Cc1c[nH]c3ccccc13)C(=O)N[C@@H](CCC(N)=O)C(=O)N2` [Compound 136, [4-Aminomethyl-phenylacetyl](1c)*SE(2c)WQ[Dab](2c)[Y(2-aminoethoxy)][2-Nal][2-Me-Val]E(1c)[Dab]-[NH2]], the Ki was 170 pM.
In the case of `CC(C)C[C@]1(C)NC(=O)[C@H](Cc2ccc3ccccc3c2)NC(=O)[C@H](Cc2ccc(OCCN)cc2)NC(=O)[C@@H]2CCNC(=O)CC[C@H](NC(=O)[C@H](CO)NC(=O)Cc3ccc(cc3)CNC(=O)CC[C@@H](C(=O)N[C@@H](CCN)C(N)=O)NC1=O)C(=O)N[C@@H](Cc1c[nH]c3cccc(F)c13)C(=O)N[C@@H](CCC(N)=O)C(=O)N2` [Compound 138, [4-Aminomethyl-phenylacetyl](1c)*SE(2c)[4-F-Trp]Q[Dab](2c)[Y(2-aminoethoxy)][2-Nal][2-Me-Leu]E(1c)[Dab]-[NH2]] ([X1]SE[Trp(4-F)]Q[Dab][AEF][2Nal][αMeL]E[Dab]-NH2; lactam 3-6, N-10) it was 723 pM.
In the case of `CC(C)C[C@]1(C)NC(=O)[C@H](Cc2ccc3ccccc3c2)NC(=O)[C@H](Cc2ccc(OCCN)cc2)NC(=O)[C@@H]2CCNC(=O)CC[C@H](NC(=O)[C@H](CO)NC(=O)Cc3ccc(cc3)CNC(=O)CC[C@@H](C(=O)N[C@@H](CCN)C(N)=O)NC1=O)C(=O)N[C@@H](Cc1c[nH]c3c(F)cccc13)C(=O)N[C@@H](CCC(N)=O)C(=O)N2` [Compound 139, [4-Aminomethyl-phenylacetyl](1c)*SE(2c)[7-F-Trp]Q[Dab](2c)[Y(2-aminoethoxy)][2-Nal][2-Me-Leu]E(1c)[Dab]-[NH2]] ([X1]SE[Trp(7-F)]Q[Dab][AEF][2Nal][αMeL]E[Dab]-NH2; lactam 3-6, N-10), the Ki is 612 pM.
With `CC(C)C[C@]1(C)NC(=O)[C@H](Cc2ccc3ccccc3c2)NC(=O)[C@H](Cc2ccc(OCCN)cc2)NC(=O)[C@@H]2CCNC(=O)CC[C@H](NC(=O)[C@H](CCC(=O)N3CCCC3)NC(=O)Cc3ccc(cc3)CNC(=O)CC[C@@H](C(=O)N[C@@H](CCN)C(N)=O)NC1=O)C(=O)N[C@@H](Cc1c[nH]c3ccccc13)C(=O)N[C@@H](CCC(N)=O)C(=O)N2` [Compound 145, [4-Aminomethyl-phenylacetyl](1c)*[Q(pyrrolidin)]E(2c)WQ[Dab](2c)[Y(2-aminoethoxy)][2-Nal][2-Me-Leu]E(1c)[Dab]-[NH2]] ([X1]E(Pyrrolidide)EWQ[Dab][AEF][2Nal][αMeL]E[Dab]-NH2; lactam 3-6, N-10), the Ki is 723 pM.
With `CC(C)C[C@]1(C)NC(=O)[C@H](Cc2ccc3ccccc3c2)NC(=O)[C@H](Cc2ccc(OCCN)cc2)NC(=O)[C@@H]2CCNC(=O)CC[C@H](NC(=O)[C@H](CO)NC(=O)Cc3ccc(cc3)CNC(=O)CC[C@@H](C(=O)N[C@@H](CCN)C(N)=O)NC1=O)C(=O)N[C@@H](Cc1c[nH]c3ccccc13)C(=O)N[C@@H](CCC(=O)N1CCCC1)C(=O)N2` [Compound 146, [4-Aminomethyl-phenylacetyl](1c)*SE(2c)W[Q(pyrrolidin)][Dab](2c)[Y(2-aminoethoxy)][2-Nal][2-Me-Leu]E(1c)[Dab]-[NH2]] ([X1]SEWE(Pyrrolidide)[Dab][AEF][2Nal][αMeL]E[Dab]-NH2; lactam 3-6, N-10) the figure was 1010 pM; with `CC(C)C[C@]1(C)NC(=O)[C@H](Cc2ccc3ccccc3c2)NC(=O)[C@H](Cc2ccc(OCCN)cc2)NC(=O)[C@@H]2CSCC(=O)CSC[C@H](NC(=O)[C@H](CO)NC(=O)Cc3ccc(cc3)CNC(=O)CC[C@@H](C(=O)N[C@@H](CCCNC(=N)N)C(=O)N[C@@H](Cc3cccnc3)C(N)=O)NC1=O)C(=O)N[C@@H](Cc1c[nH]c3ccccc13)C(=O)N[C@@H](CCC(N)=O)C(=O)N2` [Compound 147, [4-Aminomethyl-phenylacetyl](1c)*SC(2a)WQC(2a)[Y(2-aminoethoxy)][2-Nal][2-Me-Leu]E(1c)R[3-(3-Pyridyl)-Ala]-[NH2]] ([X1]SCWQC[AEF][2Nal][αMeL]ER[3Pal]-NH2; linker 3-6 via CH2COCH2; lactam N-10), 11.9 pM; with `CC(C)C[C@]1(C)NC(=O)[C@H](Cc2ccc3ccccc3c2)NC(=O)[C@H](Cc2ccc(OCCN)cc2)NC(=O)[C@@H]2CSCC(=O)CSC[C@H](NC(=O)[C@H](CO)NC(=O)c3cccc(c3)CNC(=O)CC[C@@H](C(=O)N[C@@H](CCN)C(=O)N[C@@H](Cc3cccnc3)C(N)=O)NC1=O)C(=O)N[C@@H](Cc1c[nH]c3ccccc13)C(=O)N[C@@H](CCC(N)=O)C(=O)N2` [Compound 148, [(3-Aminomethyl)benzoyl](1c)*SC(2a)WQC(2a)[Y(2-aminoethoxy)][2-Nal][2-Me-Leu]E(1c)[Dab][3-(3-Pyridyl)-Ala]-[NH2]] ([3Amb]SCWQC[AEF][2Nal][αMeL]E[Dab][3Pal]-NH2; linker 3-6 via CH2COCH2; lactam N-10), 8.97 pM.
`CC(C)C[C@]1(C)NC(=O)[C@H](Cc2ccc3ccccc3c2)NC(=O)[C@H](Cc2ccc(OCCN)cc2)NC(=O)[C@@H]2CSCC(=O)CSC[C@H](NC(=O)[C@H](CO)NC(=O)c3cccc(c3)CNC(=O)CC[C@@H](C(=O)N[C@@H](CCCNC(=N)N)C(=O)N[C@@H](Cc3cnc4ccccc4c3)C(N)=O)NC1=O)C(=O)N[C@@H](Cc1c[nH]c3ccccc13)C(=O)N[C@@H](CCC(N)=O)C(=O)N2` [Compound 149, [(3-Aminomethyl)benzoyl](1c)*SC(2a)WQC(2a)][Y(2-aminoethoxy)][2-Nal][2-Me-Leu]E(1c)R[3-(3-Quinolinyl)-Ala]-[NH2]] ([3Amb]SCWQC[AEF][2Nal][αMeL]ER[Ala(quinolin-3-yl)]-NH2; linker 3-6 via CH2COCH2; lactam N-10): the Ki is 163 pM.
